Experiments:
[1] = molecular target: T1, N-type calcium channels (IMR-32 cells) (Homo sapiens, UniProt Q00975); assay: N-type Ca2+ channel blocking in IMR-32 cells using the fluorescent Ca2+ indicator Indo-1; format: cell-based; details: 5 μM nitrendipine to block L-type channels, KCl depolarization, 30° C., read-out: Inhibition of Ca^+2 Influx in IMR-32 Cells IC50
T1 construct: host or cells: IMR-32 cells, differentiated with dibutyryl cAMP and bromodeoxyuridine
Method: Measurement of N-type Ca2+ Channel Blocking Potencies of Compounds in IMR-32 Cells Using the Fluorescent Ca2+ Indicator Indo-1 IMR-32 cells are a human tumoral cell line of neural origin. […] Calcium flux into these cells may be induced by stimulation with elevated potassium concentrations. The L-channel component of calcium flux may be blocked by adding 5 μM nitrendipine. The remaining component of calcium entry into the IMR-32 cells is due to calcium flux through N-type calcium channels. Intracellular calcium concentrations are measured using the fluorescent calcium indicator Indo-1. The effect of drug concentration on calcium uptake is studied. Methods The IMR-32 cell line was obtained from the American Type Culture Collection (Rockville, Md.). Cells were grown in Eagle's Minimum Essential Medium with Earle's salts supplemented with 10% fetal bovine serum, 2 mM L-Gln and antibiotic/antimicotic mixture (Gibco). At approximately 80% confluency, differentiation was induced by the addition of 1 mM dibutyryl cAMP and 2.5 μM bromodeoxyuridine to the medium. After 7 to 13 days of differentiation, cells were detached using 0.5 mM EDTA and loaded with five 5 μM Indo-1 acetoxymethyl ester (Molecular Probes, Eugene, Oreg.) at 30° C. for 45 minutes. Loaded cells were washed twice, resuspended (~10^7 cells/mL) in assay buffer (10 mM HEPES/Tris pH 7.4 in Hank's Balanced Salt Solution without bicarbonate or phenol red containing 0.5% bovine serum albumin) and kept on ice until use. Fluorescence measurements were carried out in a Photon Technology International (PTI, South Brunswick, N.J.) Model RF-[…] spectrofluorometer with dual emission monochromators using excitation at 350 nm and emission at 400 and 490 nm. The instrument was equipped with a thermostatted cuvette holder with stirring capabilities as well as with a computer-controlled pump which allowed for reagent addition during measurement. Instrument control and data collection was done by PTI's OSCAR software running on an IBM compatible computer. […] At 20 seconds after the start of reading, cells were depolarized by the addition of 160 μL of stimulation solution (1M KCl, 68 mM CaCl2) to the cuvette via the computer-controlled pump. Ratio of dual emission signals (400 nm/490 nm), which is proportional to intracellular Ca^2+ concentration, was plotted against time, and the difference between maximal response after stimulation and basal value (before stimulation) was determined. […] IC50 values of test compounds were calculated by fitting a four-parameter logistic function to the data using the least squares method.

[2] = tested on: ischemia and pain; details: Bowersox et al. 1994; cited from earlier work

T1 sequence (Q00975 whole entry): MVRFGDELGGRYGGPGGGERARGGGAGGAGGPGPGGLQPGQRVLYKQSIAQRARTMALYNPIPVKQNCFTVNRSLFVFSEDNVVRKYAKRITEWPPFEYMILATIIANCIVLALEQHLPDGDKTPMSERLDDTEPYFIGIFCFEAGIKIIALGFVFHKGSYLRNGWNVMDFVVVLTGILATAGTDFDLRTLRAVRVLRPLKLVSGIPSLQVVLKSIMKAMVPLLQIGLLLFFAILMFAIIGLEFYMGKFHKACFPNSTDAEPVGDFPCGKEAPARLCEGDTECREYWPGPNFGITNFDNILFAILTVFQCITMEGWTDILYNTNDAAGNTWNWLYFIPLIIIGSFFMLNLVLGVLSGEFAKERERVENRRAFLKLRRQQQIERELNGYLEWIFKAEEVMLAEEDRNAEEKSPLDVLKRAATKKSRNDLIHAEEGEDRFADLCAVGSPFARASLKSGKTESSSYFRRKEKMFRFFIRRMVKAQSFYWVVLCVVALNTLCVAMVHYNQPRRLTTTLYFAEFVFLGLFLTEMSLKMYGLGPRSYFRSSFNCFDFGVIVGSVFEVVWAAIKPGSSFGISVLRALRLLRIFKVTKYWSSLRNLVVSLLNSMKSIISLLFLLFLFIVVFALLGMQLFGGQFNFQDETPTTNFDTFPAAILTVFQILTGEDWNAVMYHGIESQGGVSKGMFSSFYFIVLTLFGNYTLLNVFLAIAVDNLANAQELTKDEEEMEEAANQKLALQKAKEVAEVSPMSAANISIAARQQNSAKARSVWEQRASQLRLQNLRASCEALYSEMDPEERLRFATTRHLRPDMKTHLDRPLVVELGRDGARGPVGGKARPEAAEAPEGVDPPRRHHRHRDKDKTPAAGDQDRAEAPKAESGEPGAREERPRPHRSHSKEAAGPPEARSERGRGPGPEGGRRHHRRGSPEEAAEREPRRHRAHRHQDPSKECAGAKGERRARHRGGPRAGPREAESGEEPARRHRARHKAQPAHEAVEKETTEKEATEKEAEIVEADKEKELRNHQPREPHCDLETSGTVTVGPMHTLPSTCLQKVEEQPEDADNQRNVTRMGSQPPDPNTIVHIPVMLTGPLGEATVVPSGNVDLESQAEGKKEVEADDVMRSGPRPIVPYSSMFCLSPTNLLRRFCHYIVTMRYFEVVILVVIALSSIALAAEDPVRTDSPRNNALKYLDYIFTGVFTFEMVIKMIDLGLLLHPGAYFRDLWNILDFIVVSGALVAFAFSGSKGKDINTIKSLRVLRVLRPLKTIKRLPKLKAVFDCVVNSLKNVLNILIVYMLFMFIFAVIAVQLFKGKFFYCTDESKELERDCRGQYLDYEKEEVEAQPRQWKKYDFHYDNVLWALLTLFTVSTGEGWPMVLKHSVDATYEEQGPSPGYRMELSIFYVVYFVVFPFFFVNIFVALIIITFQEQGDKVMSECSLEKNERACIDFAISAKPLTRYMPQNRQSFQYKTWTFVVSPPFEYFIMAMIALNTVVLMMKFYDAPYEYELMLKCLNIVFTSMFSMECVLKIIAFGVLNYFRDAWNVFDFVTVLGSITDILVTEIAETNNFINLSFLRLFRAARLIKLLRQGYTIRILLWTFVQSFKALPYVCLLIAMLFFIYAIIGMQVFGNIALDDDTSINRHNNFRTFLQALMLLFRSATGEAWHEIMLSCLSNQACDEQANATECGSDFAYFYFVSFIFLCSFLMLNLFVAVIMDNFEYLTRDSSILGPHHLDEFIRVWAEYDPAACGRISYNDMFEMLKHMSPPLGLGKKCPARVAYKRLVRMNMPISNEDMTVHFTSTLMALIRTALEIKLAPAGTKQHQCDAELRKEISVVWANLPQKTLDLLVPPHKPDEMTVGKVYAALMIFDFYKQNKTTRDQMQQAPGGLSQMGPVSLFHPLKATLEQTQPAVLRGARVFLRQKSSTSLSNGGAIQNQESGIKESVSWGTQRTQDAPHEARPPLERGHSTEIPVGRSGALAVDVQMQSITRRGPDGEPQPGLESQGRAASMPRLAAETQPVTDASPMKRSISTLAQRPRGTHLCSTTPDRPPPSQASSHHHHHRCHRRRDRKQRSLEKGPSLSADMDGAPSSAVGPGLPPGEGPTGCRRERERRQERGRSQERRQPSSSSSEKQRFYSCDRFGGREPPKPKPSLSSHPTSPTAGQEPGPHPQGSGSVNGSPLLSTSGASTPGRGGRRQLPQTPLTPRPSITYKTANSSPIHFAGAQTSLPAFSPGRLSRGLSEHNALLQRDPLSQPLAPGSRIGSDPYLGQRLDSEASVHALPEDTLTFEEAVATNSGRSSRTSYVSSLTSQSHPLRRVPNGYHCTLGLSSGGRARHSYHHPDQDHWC

SMILES | IC50 [1] [nM] | activity in models of ischemia and pain (in words) [2]
Oc1c(CNC2CCCCC2)ccc2c1CCN(CCCC(c1ccccc1)c1ccccc1)C2 [Example 7, 6-Cyclohexylaminomethyl-2-(4,4-diphenylbutyl)-1,2,3,4-tetrahydroisoquinolin-5-ol] | 1000 | 
CSCC[C@@H]1NC(=O)[C@H](CC(C)C)NC(=O)[C@H](CCCNC(=N)N)NC(=O)[C@H](CO)NC(=O)[C@@H]2CSSC[C@@H]3NC(=O)[C@H](CO)NC(=O)CNC(=O)[C@H]([C@@H](C)O)NC(=O)[C@H](CSSC[C@H](N)C(=O)N[C@@H](CCCCN)C(=O)NCC(=O)N[C@@H](CCCCN)C(=O)NCC(=O)N[C@@H](C)C(=O)N[C@@H](CCCCN)C(=O)N2)NC(=O)[C@H](CSSC[C@@H](C(N)=O)NC(=O)[C@H](CCCCN)NC(=O)CNC(=O)[C@H](CO)NC(=O)[C@H](CCCNC(=N)N)NC3=O)NC(=O)[C@H](CC(=O)O)NC(=O)[C@H](Cc2ccc(O)cc2)NC1=O [SNX-111] |  | demonstrated activity in a number of models of ischemia and pain
Oc1c(CN2CCCCCC2)ccc2c1CCN(CCCC(c1ccccc1)c1ccccc1)C2 [Example 6, 6-Azepan-1-ylmethyl-2-(4,4-diphenylbutyl)-1,2,3,4-tetrahydroisoquinolin-5-o] | 820 | 

Second part, led by results:

IC50 [1] [nM] | SMILES | activity in models of ischemia and pain (in words) [2]
1300 | Oc1c(CN2CCCCCC2)ccc2c1CCN(CCCC(c1ccc(F)cc1)c1ccc(F)cc1)C2 [Example 11, 6-Azepan-1-ylmethyl-2-[4,4-bis-(4-fluorophenyl)-butyl]-1,2,3,4-tetrahydroisoquinolin-5-ol] | 
1100 | c1ccc(C(CCCN2CCc3c(ccc4c3OCN(C3CCCCC3)C4)C2)c2ccccc2)cc1 [Example 8, 2-Cyclohexyl-7-(4,4-diphenylbutyl)-2,3,5,6,7,8-hexahydro-1H-4-oxa-2,7-diazaphenanthrene] | 
